For test [1], the species on record is Rattus norvegicus. Briefly: Compound was evaluated for the drug discrimination assay and the ED50 (potency) was determined in rats. It is filed as functional.
For test [2], the species on record is Rattus norvegicus. In words: Compound was evaluated for the drug discrimination assay and the highest percent of LSD correct responses were determined in rats. In kind it is functional.

Here are results for 4 compounds from ChEMBL document CHEMBL1122672, “Substituent branching in phenethylamine-type hallucinogens: a comparison of 1-[2,5-dimethoxy-4-(2-butyl)phenyl]-2-aminopropane and 1-[2,5-dimethoxy-4-(2-methylpropyl)phenyl]-2-aminopropane” (1984).

Molecules are shown by their SMILES.

On to `CCC(C)c1cc(OC)c(CC(C)N)cc1OC.Cl` (stereo not drawn), for which, in test [1], the ED50 was found to be 1.8 mg/kg. In addition, the LSD in test [2] was determined as 70%.

The compound `COc1cc(CC(C)N)c(OC)cc1CC(C)C.Cl` (stereo not drawn) had an ED50 in test [1] of 0.536 mg/kg. The LSD in test [2] was determined as 95%.

`COc1cc(CC(C)N)c(OC)cc1C` (stereo not drawn) [DOM] yielded a median effective dose (ED50) in test [1] of 0.148 mg/kg. Moreover, the LSD in test [2] came to 99%.

In turn, `CCN(CC)C(=O)[C@@H]1C=C2c3cccc4[nH]cc(c34)C[C@H]2N(C)C1` [LYSERGIDE] showed an ED50 in test [1] of 0.0077 mg/kg. Also, in test [2], the LSD amounted to 100%.

As a reminder, the ED50 is the dose that gives a 50% effect, or the effect in half of the subjects. A high value points to weaker potency.
